# In patent US8067369B2, “Protection of the retina against laser injury by NAP and related peptides” (Ramot at Tel-Aviv University, priority 2006, dated 2011):
# No end group written: not given here.
# Experiments:
# [1] = test system: laser-induced retinal damage; assay: Argon laser retinal lesions in rats, histopathologic and morphometric evaluation; assay type: in vivo, rat
# Description: Pigmented DA rats (strain DA/Ola/Hsd, Harlan OCAL Ltd., Blackthorn Bicester Oxon, England; raised in Tel-Aviv University animal house), 90 days old, were used for the experiments. The posterior segment of the eye of this strain has a uniform pigmentation, making it particularly useful for retinal laser injury production. The animals were fed ad libitum with a normal laboratory diet and maintained on a 12-h light/dark cycle. They were anesthetized by intraperitoneal injections of ketamine (40 mg/kg) and xylasine (8 mg/kg) before each experimental procedure.
# After dilatation of the pupil with sterile drops of Topicamid 0.5% (Midramid, Fisher), a contact lens, specially crafted to fit a rat eye for retinal laser irradiation, was attached to the cornea with 2.5% hydroxypropyl methylcellulose. Six laser retinal lesions were produced in each eye of each of the anesthetized (ketamine (40 mg/kg) and xylasine (8 mg/kg)) rats by argon laser (Novus 2000 Coherent, CA) two disc diameters away from the optic disc. The laser beam characteristics were 514 & […], 200 μm, 0.1 W, 0.05 second. These laser settings were found in previous studies to result in lesions of a uniform size and configuration, involving mainly the outer retinal layers.
# The animals of the experimental groups I and III underwent systemic intravenous injection of NAP or saline immediately after the laser photocoagulation, NAP was injected in the amount of 60 μg per animal (about 280-300 μg/kg) in a volume of 0.5 ml of saline. The animals of the control group got an injection of 0.5 ml of saline. The injections were performed in the femoral vein of the right leg of each animal after the vessel was uncovered and isolated in situ. The wound was sewed up after the injection with surgical silk.
# The animals of the experimental groups II and IV underwent NAP or saline injection immediately after the laser photocoagulation. Each eye of each anesthetized rat was punctured with a 30-gauge needle of a Hamilton syringe at the temporal posterior part of the retina. Then, 5 μl of NAP saline solution at a concentration of 2.5 pg/μl was injected into the vitreous body of the experimental group. The same amount of saline (5 μl) was injected intravitreally in the animals of the control groups. All of the procedures were controlled visually via a surgical microscope.
# The effect of treatment in all groups was evaluated at three time points: 3, 20, and 60 days after the primary injury (n=6 at each time point in each group). The animals were euthanized by a lethal dose of pentobarbitone and their eyes enucleated and fixed in 2% glutaraldehyde. Using a surgical microscope, the posterior segment of the fixed eye was dissected into tissue samples, each incorporating one retinal laser lesion. The samples were embedded in epoxy resin and the blocks sectioned serially (1 μm) with an ultramicrotome and stained with toluidine blue.
# The microscopic images were digitalized by SmartCapture VP software (Digital Scientific, USA) and enhanced by IPLab software (Scanalytics, USA). Then the images were segmented for photoreceptor clarification by IPLab software (Scanalytics, USA) and the photoreceptors were counted.
# Morphometric measurements were performed on each lesion in order to evaluate the severity of the argon laser injury. The borders of the lesion area were established at the most distant point from the middle of the lesion where the cytoarchitecture changes in the pigment epithelium, outer nuclear, inner nuclear, or ganglion cell layers of the retina could be distinguished. The measurements performed were: 1) Diameter of the whole lesion, 2) Cell count in the outer nuclear layer of the whole lesion area, and 3) Cell count in the outer nuclear layer at the 100 μm center of the lesion
# In order to evaluate the extent of photoreceptor cell loss, results were compared to the cell density in the intact regions of the outer nuclear retinal layer located 100 μm peripherally from the edges of the lesion. […]
# [2] = rabbit, in vivo
# Description: Three albino rabbits (each three months old) were used. One animal at a time was anesthetized using Ketamin (40 mg/kg) and Xylazine (8 mg/kg). After the animals were fully anesthetized, a drop of radioactive drug—^14C-NAPVSIPQ (SEQ ID NO:24) (50 microliter; 1.5×10^6 dpm; 37 mCi/mmol; 1 microCi=2×10^6 dpm) was applied once by a micropipette to each eye, i.e., eye drops. The eye drops were prepared to include 2.7 microliter of the ^14C-NAP stock in 400 microliter saline (0.9% NaCl). 10 microliters of this solution were counted to yield 3×10^5 dpm. After application of the drug, eye lids were held gently closed for 10 seconds.
# The aqueous humor is the liquid that is found in-between the cornea and lens. Ten microliter samples of aqueous humor were taken from the rabbits' eyes using a tuberculin syringe with a 30 gauge needle.
# The vitreous humor is found between the retina and the lens. Vitreous samples were obtained through the pars plana with a 25 gauge needle attached to a Tuberculin syringe. Ten microliter samples of vitreous humor were taken from each eye at designated times as outlined in the attached graphs up to 130 minutes after the initial eye drop application Systemic samples were taken from blood. For results see, e.g., FIGS. 4-6.
# The animals were anesthetized for the duration of the […] to avoid animal suffering. A boost of anesthetics was injected about ninety minutes after the initiation of the experiment.
# [3] = test system: cells of the central nervous system (CNS); conditions: cell cultures; cited from earlier work
# [4] = test system: Alzheimer's disease pathology; conditions: in vivo; cited from earlier work
# [5] = test system: normal aging rats; conditions: intranasal administration; cited from earlier work
# [6] = test system: ischemic injury; conditions: after ischemic injury; cited from earlier work
# [7] = test system: closed head injury; conditions: mice; cited from earlier work
# [8] = test system: fetal alcohol syndrome; conditions: in vivo; cited from earlier work
# [9] = test system: anxiety; conditions: long term nasal application; cited from earlier work
# [10] = test system: neurons of the central nervous system; conditions: in-vitro assays and in vivo disease models; cited from earlier work
molecule,measurement,setting,value
"CC[C@H](C)[C@H](NC(=O)[C@H](CO)NC(=O)[C@@H](NC(=O)[C@@H]1CCCN1C(=O)[C@H](C)NC(=O)[C@@H](N)CC(N)=O)C(C)C)C(=O)N1CCC[C@H]1C(=O)N[C@@H](CCC(N)=O)C(=O)O [NAP, Asn-Ala-Pro-Val-Ser-Ile-Pro-Gln]",neuroprotective effect against laser-induced retinal damage,"[1]; intravitreal NAP 5 μl of 2.5 pg/μl, 3 days after the laser session",significant neuroprotective effect
same,neuroprotective effect against laser-induced retinal damage,"[1]; intravitreal NAP, 20 and 60 days after the laser session",not after 20 and 60 days
same,mean lesion diameter,"[1]; intravitreal NAP, 3 days after the laser injury",reduced
same,mean lesion diameter,"[1]; intravitreal NAP, after 20 days, vs control groups",greater than in control groups
same,photoreceptor loss (morphological evaluation of the lesions),"[1]; systemic intravenous NAP 60 μg per animal immediately after laser, 3 and 20 days after injury, vs saline control",attenuation
same,lesion diameter (morphological evaluation of the lesions),"[1]; systemic intravenous NAP 60 μg per animal, 3 and 20 days after injury, vs saline control",attenuation
same,"number of cells lost, whole and central areas of lesion","[1]; systemic intravenous NAP, 3, 20 and 60 days after injury",reduced
same,diameter of the lesion,"[1]; systemic intravenous NAP, 20 and 60 days after the injury",significant ameliorative effects (P<0.01)
same,neuroprotective effect (photoreceptor loss and lesion diameter),"[1]; systemic intravenous NAP, 60 days after the laser session","also manifested, although to a lesser extent"
same,significance of reduction in number of cells lost,"[1]; systemic intravenous NAP, sixty days after photocoagulation only",statistically significant (P<0.01)
same,maximal incorporation into vitreous samples,[2],60 dpm/10 microliters
same,peak of radioactive incorporation into the aqueous humor,[2],150 dpm/10 microliter
same,radioactivity at the aqueous humor at the 10 minute point,[2],~60 dpm/10 microliters
same,systemic exposure (blood radioactivity),[2],1-12 dpm
same,time of maximal incorporation into vitreous samples,[2],10 min
same,time of peak radioactive incorporation into the aqueous humor,[2],50 min
same,time the aqueous humor peak was maintained,[2],70 min
same,concentration showing neuroprotective activity,[3],femtomolar concentrations
same,effect in Alzheimer's disease pathology models,[4],protective
same,performance in the Morris water maze,[5],improved performance
same,infarct volume,[6],reduced
same,motor function deficits,[6],reduced
same,damage caused by closed head injury,[7],reducing damage
same,fetal demise,[8],reducing
same,growth restrictions,[8],reducing
same,anxiety,[9],decreased anxiety
SALLRSIPA,survival of neurons in response to various insults,[10],keep neurons of the central nervous system alive
